Assay results from publication PMC11466185, “Mechanisms and efficacy of small molecule latency-promoting agents to inhibit HIV reactivation ex vivo” (JCI Insight, 2024).
Several values for one entry are separate records, joined by “and”; a condition that tells them apart may be missing. Equal entries are not always repeated.

Assays:
PBMCs = assay: Cell viability by trypan blue staining after 24 hours; format: cell-based, human; conditions: for Cell viability (in words): initial screening concentrations, Figure 1A
Method: (§1) Figure 1 Screening of candidate LPAs by measuring the change in multiply spliced HIV transcripts after activation. Each drug was tested in PBMCs from 2 ART-suppressed study participants (denoted in the legend by varying symbol shapes). PBMCs were aliquoted into wells at 6 × 10^6 cells/well. After activation, the cells were cultured with antiretrovirals in the presence of individual drugs in DMSO or DMSO alone as control. All conditions were tested in the presence of CD3/28 T cell–activating beads, except for the unactivated DMSO condition. (A) After 24 hours, the viability was measured by trypan blue staining and then normalized to the levels of the activated DMSO (% of activated DMSO). Bars indicate medians. (B) Total cellular RNA was extracted, and the levels of multiply spliced HIV transcripts (TatRev) were measured by RT-ddPCR, normalized to 1 μg of total cellular RNA, and expressed as a percentage of the activated DMSO control (% of activated DMSO). RT-dd, reverse transcription digital droplet; vRNA, viral RNA; HAT, histone acetyltransferase.
For quantification of cell-associated HIV transcripts, PBMCs were harvested either after 24 hours or after 6 days. The cell viabilities were measured by trypan blue staining; then the cells were pelleted by centrifuging at 300g for 6 minutes and stored at –80°C. For quantification of virion-associated HIV RNA, cell culture supernatant was collected from 6 × 10^6 PBMCs that were treated and activated for 6 days as described above. Residual cells and cellular debris were subsequently removed from the supernatant by differential centrifugation (300g for 6 minutes, then 20,000g for 10 minutes), and the supernatant was stored at –80°C.

[1] = tested on: HIV transcripts (TAR, LLTR, Pol, PolyA, TatRev); assay: Latency reversal assay: cell-associated HIV transcripts (RT-ddPCR) 24 hours after anti-CD3/CD28 activation of PBMCs from ART-suppressed PWH; format: cell-based; parameters: key to TatRev: % of activated DMSO control, normalized to 1 μg total RNA; Elongated (LLTR) HIV transcripts, median relative to activated DMSO, initial screening / Midtranscribed (Pol) HIV transcripts, median relative to activated DMSO, initial screening / Multiply spliced (TatRev) HIV transcripts, median relative to activated DMSO, initial screening: concentration or dose not given beside the values; conditions: for HIV transcriptional elongation, ratio LLTR/TAR: Figure 3B; for Multiply spliced (TatRev) HIV transcripts, median relative to activated DMSO, initial screening: Figure 1B; for Pol HIV transcripts (DMSO αCD3/28 = 100) / PolyA HIV transcripts (DMSO αCD3/28 = 100) / TatRev HIV transcripts (DMSO αCD3/28 = 100): αCD3/28-activated, ruxolitinib 4μM, triptolide 25-50nM, alvocidib 40nM, dinaciclib 8nM, AZD4573 8nM, quercetin 5μM, pladienolide B 10nM, isoginkgetin 25μM, herboxidiene 5nM, KRIBB11 2.5μM, tanespimycin 5μM, mithramycin A 25nM; for PolyA / TatRev: DMSO+αCD3/28 = 100, Fig 3A; for LLTR/TAR / PolyA/LLTR / TatRev/PolyA: DMSO+CD3/28 = 1, Fig 3B, C and D; for Effect on HIV transcripts in the initial drug screen (in words): 24 hours after activation
Method: We selected 26 small molecules targeting pathways implicated in HIV transcription or the blocks to HIV transcription underlying latency (Supplemental Table 1). […] Initial screening of all drugs was performed in freshly isolated PBMCs from 2 ART-suppressed individuals (Figure 1 and Supplemental Figure 2). PBMCs were cultured in the presence of individual drugs in DMSO or DMSO alone as a control, subsequently activated (anti-CD3/CD28), and harvested after 24 hours. […] The progression through different blocks to HIV transcription was quantified by measuring the levels of initiated (TAR), 5′ elongated (LLTR), midtranscribed/unspliced (Pol), completed (PolyA), and multiply spliced (TatRev) HIV transcripts. The levels of those HIV transcripts were normalized to 1 μg of total cellular RNA (to normalize for the effect of the drug on global cellular transcription) and expressed as a percentage of the activated DMSO control.
as §1
The ability of our candidate LPAs to inhibit HIV transcriptional progression after activation was examined in PBMCs from a minimum of 7 PWH per drug tested (Figure 3). PBMCs were cultured in the presence of individual drugs in DMSO or in DMSO alone as a control, subsequently activated (anti-CD3/CD28), and harvested after 24 hours.
Each drug was tested in PBMCs from 7 ART-suppressed study participants. The PBMCs were aliquoted into wells at 6 × 10^6 cells/well. After activation, the cells were cultured with antiretrovirals in the presence of individual drugs in DMSO or DMSO alone as control. All conditions were tested in the presence of CD3/28 T cell–activating beads, except for the unactivated DMSO condition. After 24 hours, total RNA was extracted, and the progression through different stages of HIV transcription was quantified by measuring the levels of initiated (TAR), 5′ elongated (LLTR), midtranscribed/unspliced (Pol), completed (PolyA), and multiply spliced (TatRev) HIV transcripts. (A) The levels of all HIV transcripts were normalized to 1 μg of total cellular RNA and expressed as a percentage of the activated DMSO control (% of activated DMSO). Medians are shown as well as the individual values per study participant in different colors. (B–D) The effect of each drug on HIV transcriptional progression after activation was analyzed by the ratio of one HIV transcript to another. Ratios are independent of HIV infection frequency or normalization to cell numbers. Shown are the proportion of (B) all HIV transcripts that were elongated (LLTR/TAR), (C) elongated HIV transcripts that were completed spliced (PolyA/LLTR), and (D) completed transcripts that were multiply spliced (TatRev/PolyA).

[2] = 5nM, 24 h after αCD3/28 activation, each column one participant
[3] = 24 hours, compared with activated DMSO
[4] = initial screening, 2 participants, 24 hours, Supplemental Figure 2

COc1ccc(-c2cc(=O)c3c(O)cc(O)c(-c4cc(-c5cc(=O)c6c(O)cc(O)cc6o5)ccc4OC)c3o2)cc1 [isoginkgetin]
Cell viability (in words) (PBMCs): impact on cell viability | Viability (Fig 1A) (PBMCs; study participant 150a): 88.97 % of activated DMSO | Viability (Fig 1A) (PBMCs; study participant 152): 84.74 % of activated DMSO

CO[C@H]([C@@H](C)[C@H]1O[C@]1(C)C[C@H](C)/C=C/C=C(\C)[C@H]1O[C@@H](CC(=O)O)CC[C@@H]1C)[C@@H](C)O [herboxidiene]
LLTR HIV transcripts (DMSO+αCD3/28 = 100) [1, 2]: 81.19 and 43.81 and 65.61 and 39.82 and 46.55 and 19.9 and 41.59 | Pol HIV transcripts (DMSO+αCD3/28 = 100) [1, 2]: 51.16 and 73 and 22.91 and 16.22 and 3.35 and 168.38 | TAR HIV transcripts (DMSO+αCD3/28 = 100) [1, 2]: 84.02 and 77.63 and 124.48 and 122.07 and 106.99 and 116.67 | TatRev HIV transcripts (DMSO+αCD3/28 = 100) [1, 2]: 33.33 and 25.2 and 10.9 and 51.8 and 0 (2×) | HIV transcriptional elongation, ratio LLTR/TAR [1, 3]: Significant reductions | Reduction of multiply spliced or completed HIV transcripts in drug screen (selection as candidate LPA) ([1]; initial screening, 2 participants, 24 hours): more than 50% | Multiply spliced (TatRev) HIV transcripts, median relative to activated DMSO, initial screening [1, 4]: 23% | Pol HIV transcripts (DMSO αCD3/28 = 100) ([1]; participant 150b): 43.29 | PolyA HIV transcripts (DMSO αCD3/28 = 100) ([1]; participant 150b): 23.53 | TatRev HIV transcripts (DMSO αCD3/28 = 100) ([1]; participant 150b): 2.69 | Pol HIV transcripts (DMSO αCD3/28 = 100) ([1]; participant 1379): 47.94 | PolyA HIV transcripts (DMSO αCD3/28 = 100) ([1]; participant 1379): 28.08 | TatRev HIV transcripts (DMSO αCD3/28 = 100) ([1]; participant 1379): 171.43 | Pol HIV transcripts (DMSO αCD3/28 = 100) ([1]; participant 2027): 133.33 | PolyA HIV transcripts (DMSO αCD3/28 = 100) ([1]; participant 2027): 36.92 | TatRev HIV transcripts (DMSO αCD3/28 = 100) ([1]; participant 2027): 0 | Pol HIV transcripts (DMSO αCD3/28 = 100) ([1]; participant 2147a): 105.88 | PolyA HIV transcripts (DMSO αCD3/28 = 100) ([1]; participant 2147a): 21.76 | TatRev HIV transcripts (DMSO αCD3/28 = 100) ([1]; participant 2147a): 28.42 | Pol HIV transcripts (DMSO αCD3/28 = 100) ([1]; participant 2161): 169.45 | PolyA HIV transcripts (DMSO αCD3/28 = 100) ([1]; participant 2161): 268.67 | TatRev HIV transcripts (DMSO αCD3/28 = 100) ([1]; participant 2161): 176.87 | Pol HIV transcripts (DMSO αCD3/28 = 100) ([1]; participant 2256): 18.46 | PolyA HIV transcripts (DMSO αCD3/28 = 100) ([1]; participant 2256): 16.27 | TatRev HIV transcripts (DMSO αCD3/28 = 100) ([1]; participant 2256): 1.4 | PolyA HIV transcripts (DMSO αCD3/28 = 100) ([1]; participant 2461): 1692.31 | Pol HIV transcripts (DMSO αCD3/28 = 100) ([1]; participant 5557): 23.16 | PolyA HIV transcripts (DMSO αCD3/28 = 100) ([1]; participant 5557): 23.33 | TatRev HIV transcripts (DMSO αCD3/28 = 100) ([1]; participant 5557): 0 | Multiply spliced HIV transcripts (TatRev) (Fig 1B) ([1]; study participant 150a, 24 hours): 33.33 % of activated DMSO | PolyA ([1]; study participant 150a): 73.21 | TatRev ([1]; study participant 150a): 33.33 | LLTR/TAR ([1]; study participant 1379): 0.186 | PolyA/LLTR ([1]; study participant 1379): 0.4248 | TatRev/PolyA ([1]; study participant 1379): 0 | PolyA ([1]; study participant 1379): 8.45 | TatRev ([1]; study participant 1379): 0 | LLTR/TAR ([1]; study participant 2027): 0.85 | PolyA/LLTR ([1]; study participant 2027): 0.67 | PolyA ([1]; study participant 2027): 43.76 | Multiply spliced HIV transcripts (TatRev) (Fig 1B) ([1]; study participant 2147b, 24 hours): 12.13 % of activated DMSO | LLTR/TAR ([1]; study participant 2147b): 0.2964 | PolyA/LLTR ([1]; study participant 2147b): 0.9546 | TatRev/PolyA ([1]; study participant 2147b): 0.3499 | PolyA ([1]; study participant 2147b): 22.4 | TatRev ([1]; study participant 2147b): 10.9 | LLTR/TAR ([1]; study participant 2256): 0.3813 | PolyA/LLTR ([1]; study participant 2256): 0.9973 | TatRev/PolyA ([1]; study participant 2256): 1.116 | PolyA ([1]; study participant 2256): 46.43 | TatRev ([1]; study participant 2256): 51.8 | LLTR/TAR ([1]; study participant 2750): 0.5214 | PolyA/LLTR ([1]; study participant 2750): 1.543 | TatRev/PolyA ([1]; study participant 2750): 0.3728 | PolyA ([1]; study participant 2750): 67.59 | TatRev ([1]; study participant 2750): 25.2 | LLTR/TAR ([1]; study participant 5557): 0.3565 | PolyA/LLTR ([1]; study participant 5557): 0.117 | TatRev/PolyA ([1]; study participant 5557): 0 | PolyA ([1]; study participant 5557): 4.86 | TatRev ([1]; study participant 5557): 0 | Viability (Fig 1A) (PBMCs; study participant 150a): 99.57 % of activated DMSO | Viability (Fig 1A) (PBMCs; study participant 2147b): 98.97 % of activated DMSO

CC(C)[C@]12O[C@H]1[C@@H]1O[C@]13[C@]1(O[C@H]1C[C@H]1C4=C(CC[C@@]13C)C(=O)OC4)[C@@H]2O [triptolide]
HIV transcriptional elongation, ratio LLTR/TAR [1, 3]: no impact | HIV transcriptional completion, ratio PolyA/LLTR ([1]; 24 hours, compared with activated DMSO, Figure 3C): reduced completion | HIV multiple splicing, ratio TatRev/PolyA ([1]; 24 hours, compared with activated DMSO, Figure 3D): reduce HIV multiple splicing | Decrease in initiated TAR transcripts ([1]; after activation, relative to activated DMSO): more than 95% | Multiply spliced (TatRev) HIV transcripts, median relative to activated DMSO, initial screening [1, 4]: 0% | Elongated (LLTR) HIV transcripts, median relative to activated DMSO, initial screening [1, 4]: 21% | Midtranscribed (Pol) HIV transcripts, median relative to activated DMSO, initial screening [1, 4]: 9% | Cell viability (in words) (PBMCs): impact on cell viability | Viability (Fig 1A) (PBMCs; study participant 150b): 96.4057 % of activated DMSO | Viability (Fig 1A) (PBMCs; study participant 2147b): 91.51 % of activated DMSO

mithramycin A
Effect on HIV transcripts in the initial drug screen (in words) ([1]; initial screening, 2 participants): no effect after 24 hours | Effect on HIV transcripts in the initial drug screen (in words) ([1]; initial screening, 2 participants, listed as Mithramycin A): lack of an effect at 24 hours
